Data: US6566307B1, “α,α′-substituted n-alkyl-3-alkenylbenzoyl-pyrazol-derivatives” (BASF Aktiengesellschaft, priority 1999, dated 2003)

What was measured:
Experiment in all cases: Greenhouse herbicidal activity, post-emergence method
Settings in all cases: scale 0 to 100 (100 = complete destruction, 0 = no damage)
[1] = test system: SETVI; assay type: in vivo, green foxtail
From the text: (§1) The herbicidal activity of the compounds of the formula I was shown by greenhouse experiments: The culture containers used are plastic pots containing loamy sand with approximately 3.0% of humus as the substrate. The seeds of the test plants are sown separately for each species. For the post-emergence treatment, the test plants were first grown to a height of 3 to 15 cm, depending on the plant form, and only then treated with the active compounds which have been suspended or emulsified in water. The test plants were for this purpose either sown directly and grown in the same containers, or they were first grown separately as seedlings and transplanted into the test containers a few days prior to treatment. The application rate for the post-emergence treatment was 0.25, 0.125 or 0.0625 kg of active substance (a.s.)/ha. Depending on the species, the plants were kept at 10-25° C. or 20-35° C. The test period extended over 2 to 4 weeks. During this time, the plants are tended, and their response to the individual treatments was evaluated. The evaluation was carried out using a scale from 0 to 100. 100 means no emergence of the plants, or complete destruction of at least the aerial parts and 0 means no damage, or normal course of growth. The plants used in the greenhouse experiments were composed of the following species: [table]

[2] = test system: POLPE; assay type: in vivo, ladysthumb
From the text: as §1

[3] = test system: SINAL; assay type: in vivo, white mustard
From the text: as §1

[4] = test system: ECHCG; assay type: in vivo, barnyardgrass
From the text: as §1

[5] = test system: CHEAL; assay type: in vivo, lambsquarter
From the text: as §1

[6] = application rate 0.0625 kg of a.s./ha
[7] = application rate 0.125 kg of a.s./ha

C=Cc1c(S(C)(=O)=O)ccc(C(=O)C2C=NN(C(C)C)C2O)c1OC (stereo not shown)
Herbicidal activity when used by the post-emergence method in a greenhouse [1, 6]: 95 | Herbicidal activity when used by the post-emergence method in a greenhouse [1, 7]: 95 | Herbicidal activity when used by the post-emergence method in a greenhouse [2, 6]: 100 | Herbicidal activity when used by the post-emergence method in a greenhouse [2, 7]: 100 | Herbicidal activity when used by the post-emergence method in a greenhouse [3, 6]: 98 | Herbicidal activity when used by the post-emergence method in a greenhouse [3, 7]: 98 | Herbicidal activity when used by the post-emergence method in a greenhouse [4, 6]: 95 | Herbicidal activity when used by the post-emergence method in a greenhouse [4, 7]: 95 | Herbicidal activity when used by the post-emergence method in a greenhouse [5, 6]: 100 | Herbicidal activity when used by the post-emergence method in a greenhouse [5, 7]: 100
